From US10597388B2, “Pyridazinone herbicides” (FMC CORPORATION, priority 2014, dated 2020)

Key:
Assay in all cases: Test D controlled growth environment herbicide test, pre- and postemergence
Assay type in all cases: in vivo
[1] = test system: barley, winter (winter barley, Hordeum vulgare)
Method in brief: (§1)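 Pre-emergence: seeds sown in silt loam soil were sprayed with compound in a non-phytotoxic solvent mix containing surfactant. Post-emergence: plants at 2 to 18 cm (1- to 4-leaf stage) in peat moss/vermiculite medium got the same formulation. Visual 0–100 rating versus controls after 14 to 21 d.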

[2] = test system: blackgrass (Alopecurus myosuroides)
Method in brief: as §1

[3] = test system: bluegrass (annual bluegrass, Poa annua)
Method in brief: as §1

[4] = test system: bromegrass, downy (downy bromegrass, Bromus tectorum)
Method in brief: as §1

[5] = test system: buckwheat, wild (wild buckwheat, Polygonum convolvulus)
Method in brief: as §1

[6] = test system: canarygrass (Phalaris minor)
Method in brief: as §1

[7] = test system: foxtail, green (green foxtail, Setaria viridis)
Method in brief: as §1

[8] = test system: galium (catchweed bedstraw, Galium aparine)
Method in brief: as §1

[9] = test system: lambsquarters (Chenopodium album)
Method in brief: as §1

[10] = test system: pigweed (Amaranthus retroflexus)
Method in brief: as §1

[11] = test system: ryegrass, Italian (Italian ryegrass, Lolium multiflorum)
Method in brief: as §1

[12] = test system: wheat, spring (spring wheat, Triticum aestivum)
Method in brief: as §1

[13] = test system: windgrass (Apera spica-venti)
Method in brief: as §1

[14] = Postemergence, 31 g ai/ha, scale 0 to 100 (0 no effect, 100 complete control)
[15] = Postemergence, 125 g ai/ha, visual rating on scale 0 (no effect) to 100 (complete control), 14 to 21 d
[16] = Postemergence, 250 g ai/ha, scale 0 to 100 (0 no effect, 100 complete control)
[17] = Preemergence, 62 g ai/ha, scale 0 to 100 (0 no effect, 100 complete control)
[18] = Preemergence, 125 g ai/ha, scale 0 to 100 (0 no effect, 100 complete control)
[19] = Preemergence, 250 g ai/ha, scale 0 to 100, 0 no effect, 100 complete control
[20] = postemergence, 62 g ai/ha, scale 0 to 100, 0 no effect, 100 complete control

Cc1nn(C)c(=O)c(-c2ccc(F)c3ccccc23)c1O [Compound 41]
20: Plant response rating, Barley, Winter [1, 17] | Plant response rating, Bromegrass, Downy [4, 20] | Plant response rating, Wheat, Spring [12, 20]
35: Plant response rating, Barley, Winter [1, 16] | Plant response rating, Bluegrass [3, 16] | Plant response rating, Bromegrass, Downy [4, 15] | Plant response rating (scale of 0 to 100), Buckwheat, Wild ([5]; Preemergence, 31 g ai/ha)
85: Plant response rating, Galium [8, 17] | Plant response rating, Lambsquarters [9, 16] | Plant response rating, Pigweed [10, 16] | Plant response rating, Ryegrass, Italian [11, 15] | Plant response rating, Ryegrass, Italian [11, 20] | Plant response rating, Wheat, Spring [12, 19]
40: Plant response rating, Wheat, Spring [12, 16] | Plant response rating (scale of 0 to 100), Wheat, Spring ([12]; Preemergence, 31 g ai/ha) | Windgrass plant response rating [13, 14]
5: Plant response rating, Barley, Winter [1, 15] | Plant response rating, Barley, Winter [1, 20]
55: Blackgrass plant response rating [2, 14] | Plant response rating, Bromegrass, Downy [4, 17] | Plant response rating, Buckwheat, Wild [5, 17] | Canarygrass plant response rating [6, 14] | Plant response rating, Foxtail, Green [7, 20] | Plant response rating, Wheat, Spring [12, 17] | Plant response rating, Windgrass [13, 20]
15: Bluegrass plant response rating [3, 14] | Wheat, Spring plant response rating [12, 14]
45: Plant response rating, Bromegrass, Downy [4, 16] | Foxtail, Green plant response rating [7, 14] | Plant response rating (scale of 0 to 100), Foxtail, Green ([7]; Preemergence, 31 g ai/ha)
60: Plant response rating, Windgrass [13, 15]
30: Barley, Winter plant response rating [1, 19] | Plant response rating, Bluegrass [3, 20] | Plant response rating, Wheat, Spring [12, 15]
25: Plant response rating, Barley, Winter [1, 18] | Plant response rating, Bluegrass [3, 15] | Plant response rating (scale of 0 to 100), Lambsquarters ([9]; Preemergence, 31 g ai/ha) | Plant response rating (scale of 0 to 100), Pigweed ([10]; Preemergence, 31 g ai/ha)
80: Plant response rating, Blackgrass [2, 18] | Blackgrass plant response rating [2, 19] | Plant response rating, Bluegrass [3, 18] | Plant response rating, Bromegrass, Downy [4, 19] | Buckwheat, Wild plant response rating [5, 14] | Plant response rating, Canarygrass [6, 15] | Plant response rating, Canarygrass [6, 16] | Plant response rating, Foxtail, Green [7, 17] | Plant response rating, Pigweed [10, 15] | Plant response rating, Pigweed [10, 20] | Ryegrass, Italian plant response rating [11, 14] | Plant response rating, Windgrass [13, 18]
100: Plant response rating, Buckwheat, Wild [5, 16] | Plant response rating, Foxtail, Green [7, 18] | Plant response rating, Foxtail, Green [7, 19] | Galium plant response rating [8, 14] | Plant response rating, Galium [8, 15] | Plant response rating, Galium [8, 16] | Plant response rating, Galium [8, 19] | Plant response rating, Galium [8, 20] | Plant response rating, Lambsquarters [9, 17] | Plant response rating, Lambsquarters [9, 18] | Plant response rating, Lambsquarters [9, 19] | Plant response rating, Pigweed [10, 18] | Plant response rating, Pigweed [10, 19] | Plant response rating, Ryegrass, Italian [11, 17] | Plant response rating, Ryegrass, Italian [11, 18] | Plant response rating, Ryegrass, Italian [11, 19]
70: Plant response rating, Blackgrass [2, 15] | Plant response rating (scale of 0 to 100), Blackgrass ([2]; Preemergence, 31 g ai/ha) | Plant response rating (scale of 0 to 100), Bluegrass ([3]; Preemergence, 31 g ai/ha) | Plant response rating, Bromegrass, Downy [4, 18] | Plant response rating, Canarygrass [6, 20] | Lambsquarters plant response rating [9, 14] | Plant response rating, Wheat, Spring [12, 18] | Plant response rating (scale of 0 to 100), Windgrass ([13]; Preemergence, 31 g ai/ha)
50: Plant response rating (scale of 0 to 100), Bromegrass, Downy ([4]; Preemergence, 31 g ai/ha) | Plant response rating, Foxtail, Green [7, 15]
95: Plant response rating, Buckwheat, Wild [5, 15] | Plant response rating, Canarygrass [6, 19] | Plant response rating, Galium [8, 18] | Plant response rating (scale of 0 to 100), Ryegrass, Italian ([11]; Preemergence, 31 g ai/ha) | Plant response rating, Windgrass [13, 19]
90: Bluegrass plant response rating [3, 19] | Plant response rating, Buckwheat, Wild [5, 20] | Plant response rating (scale of 0 to 100), Canarygrass ([6]; Preemergence, 31 g ai/ha) | Plant response rating, Canarygrass [6, 17] | Plant response rating, Canarygrass [6, 18] | Plant response rating, Ryegrass, Italian [11, 16]
65: Plant response rating, Blackgrass [2, 20] | Plant response rating, Buckwheat, Wild [5, 18] | Plant response rating, Foxtail, Green [7, 16] | Plant response rating, Lambsquarters [9, 20]
0: Plant response rating, Barley, Winter [1, 14] | Plant response rating (scale of 0 to 100), Barley, Winter ([1]; Preemergence, 31 g ai/ha)
75: Plant response rating, Blackgrass [2, 16] | Plant response rating, Blackgrass [2, 17] | Plant response rating, Bluegrass [3, 17] | Plant response rating, Buckwheat, Wild [5, 19] | Plant response rating (scale of 0 to 100), Galium ([8]; Preemergence, 31 g ai/ha) | Plant response rating, Lambsquarters [9, 15] | Pigweed plant response rating [10, 14] | Plant response rating, Pigweed [10, 17] | Plant response rating, Windgrass [13, 16] | Plant response rating, Windgrass [13, 17]
10: Bromegrass, Downy plant response rating [4, 14]
